According to ChEMBL document CHEMBL5625209, “Rational design and optimization of acylthioureas as novel potent influenza virus non-nucleoside polymerase inhibitors” (Eur J Med Chem, 2023):
Active and inactive are the calls of the source. The calls are words filed in the database; no cut-off is given here.

How the values were obtained:
[1] = Metabolic stability in human liver microsomes assessed as hepatic extraction ratio preincubated for 5 mins followed by NADPH addition and measured upto 45 mins by LC-MS analysis; type: ADME, Microsome; settings: time < 50 min
Influenza A virus [2] = assay: Antiviral activity against Influenza A virus H1N1 (A/Puerto Rico/8/34) infected in MDCK cells assessed as reduction in nucleocapsid protein level by Western blot analysis; type: functional, organism-based; settings: dose 2-125 nM
[3] = Toxicity in BALB/c mouse assessed as clonic convulsion at 1 g/kg, IG administered 3 times per day and measured for 14 days; settings: in vivo, po, 1000 mg/kg, 336 h, time 14 day
[4] = Metabolic stability in mouse liver microsomes assessed as hepatic extraction ratio preincubated for 5 mins followed by NADPH addition and measured upto 45 mins by LC-MS analysis; type: ADME, Microsome; settings: time < 50 min
[5] = Metabolic stability in human liver microsomes assessed as half life preincubated for 5 mins followed by NADPH addition and measured upto 45 mins by LC-MS analysis; type: ADME, Microsome; settings: time < 50 min
[6] = Metabolic stability in dog liver microsomes assessed as hepatic extraction ratio preincubated for 5 mins followed by NADPH addition and measured upto 45 mins by LC-MS analysis; type: ADME, Canis lupus familiaris, Microsome; settings: time < 50 min
Influenza A virus [7] = assay: Antiviral activity against Influenza A virus H1N1 (A/Puerto Rico/8/34) infected in MDCK cells assessed as reduction in NP protein level at 1 uM in presence of rNTP by Western blot analysis; type: functional, organism-based
Influenza A virus [8] = assay: Antiviral activity against Influenza A virus H1N1 (A/Puerto Rico/8/34) infected in MDCK cells assessed as reduction in NP viral RNA level at 1 uM treated at 4 hrs post infection by qRT-PCR analysis; type: functional, organism-based
Influenza A virus [9] = assay: Antiviral activity against Influenza A virus H1N1 (A/Puerto Rico/8/34) infected in BALB/c mouse at 100 mg/kg/day, po administered twice daily for 7 days and measured after 14 days; type: functional; settings: time 14 day
[10] = AUC(0 to infinity) in Sprague-Dawley rat at 3 mg/kg, iv measured up to 24 hrs by LC-MS analysis; type: ADME, organism-based; settings: Sprague-Dawley, in vivo
[11] = Metabolic stability in mouse liver microsomes assessed as intrinsic clearance preincubated for 5 mins followed by NADPH addition and measured upto 45 mins by LC-MS analysis; type: ADME, Microsome; settings: time < 50 min, read-out: CLH
[12] = Oral bioavailability in Sprague-Dawley rat at 10 mg/kg measured up to 24 hrs by LC-MS analysis; type: ADME, organism-based; settings: in vivo
Influenza B virus [13] = assay: Antiviral activity against influenza B virus B/Yamagata/16/88 infected in MDCK cells; type: functional, organism-based; settings: B/Yamagata/16/88, MDCK
[14] = Cytotoxicity against MDCK cells by CCK-8 assay; type: toxicity, cell-based, Canis lupus familiaris; settings: dog
Influenza A virus [15] = assay: Antiviral activity against Influenza A virus H1N1 (A/Puerto Rico/8/34) infected in MDCK cells assessed as reduction in NP protein level at 1 uM in presence of rUTP by Western blot analysis; type: functional, organism-based
[16] = Cmax in Sprague-Dawley rat at 3 mg/kg, iv measured up to 24 hrs by LC-MS analysis; type: ADME, organism-based; settings: in vivo
Influenza A virus [17] = assay: Inhibition of Influenza A virus RdRp activity assessed as reduction in Fluc/Rluc ratio; settings: dose 0.5-50 µM
[18] = Half life in Sprague-Dawley rat at 3 mg/kg, iv measured up to 24 hrs by LC-MS analysis; type: ADME, organism-based; settings: in vivo
[19] = Selectivity index, ratio of CC50 for MDCK cells to EC50 for antiviral activity against Influenza A virus H1N1 (A/Puerto Rico/8/34) infected in MDCK cells; type: toxicity, cell-based; settings: dog, read-out: Ratio CC50/EC50
[20] = Cmax in Sprague-Dawley rat at 10 mg/kg, po measured up to 24 hrs by LC-MS analysis; type: ADME, organism-based; settings: in vivo
[21] = Tmax in Sprague-Dawley rat at 10 mg/kg, po measured up to 24 hrs by LC-MS analysis; type: ADME, organism-based; settings: in vivo
[22] = Metabolic stability in mouse liver microsomes assessed as hepatic clearance preincubated for 5 mins followed by NADPH addition and measured upto 45 mins by LC-MS analysis; type: ADME, Microsome; settings: time < 50 min
[23] = Tmax in Sprague-Dawley rat at 3 mg/kg, iv measured up to 24 hrs by LC-MS analysis; type: ADME, organism-based; settings: in vivo
[24] = Toxicity in BALB/c mouse assessed as body weight loss at 1 g/kg, IG administered 3 times per day and measured on day 4 to 9; settings: in vivo, po, 1000 mg/kg, time 4-9 day
Influenza A virus [25] = assay: Antiviral activity against Influenza A virus H1N1 (A/Puerto Rico/8/34) infected in MDCK cells assessed as reduction in nucleocapsid protein mRNA level by qRT-PCR analysis; type: functional, organism-based; settings: dose 2-31.3 nM
[26] = AUC(0 to t) in Sprague-Dawley rat at 10 mg/kg, po measured up to 24 hrs by LC-MS analysis; type: ADME, organism-based; settings: in vivo
[27] = Metabolic stability in human plasma assessed as half life measured upto 120 mins by LC-MS/MS analysis; type: ADME, cell-free
Influenza A virus [28] = assay: Antiviral activity against Influenza A virus H1N1 (A/Puerto Rico/8/34) infected in MDCK cells assessed as reduction in NP protein level at 1 uM treated at 4 hrs post infection by Western blot analysis; type: functional, organism-based
[29] = Toxicity in BALB/c mouse assessed as ruffled fur at 1 g/kg, IG administered 3 times per day and measured for 14 days; settings: in vivo, po, 1000 mg/kg, 336 h, time 14 day
[30] = Metabolic stability in human liver microsomes assessed as intrinsic clearance preincubated for 5 mins followed by NADPH addition and measured upto 45 mins by LC-MS analysis; type: ADME, Microsome; settings: time < 50 min, read-out: CLH
[31] = Metabolic stability in dog liver microsomes assessed as hepatic clearance preincubated for 5 mins followed by NADPH addition and measured upto 45 mins by LC-MS analysis; type: ADME, Canis lupus familiaris, Microsome; settings: time < 50 min
[32] = Metabolic stability in dog liver microsomes assessed as intrinsic clearance preincubated for 5 mins followed by NADPH addition and measured upto 45 mins by LC-MS analysis; type: ADME, Canis lupus familiaris, Microsome; settings: time < 50 min, read-out: CLH
Influenza A virus [33] = assay: Antiviral activity against Influenza A virus H1N1 (A/Puerto Rico/8/34) infected in MDCK cells assessed as reduction in virus-induced cytopathic effect incubated for 48 hrs by CCK8 assay; type: functional, organism-based
Influenza A virus [34] = assay: Antiviral activity against Influenza A virus H1N1 (A/Puerto Rico/8/34) infected in MDCK cells assessed as reduction in NP protein level at 1 uM in presence of rCTP by Western blot analysis; type: functional, organism-based
[35] = Metabolic stability in mouse liver microsomes assessed as half life preincubated for 5 mins followed by NADPH addition and measured upto 45 mins by LC-MS analysis; type: ADME, Microsome; settings: time < 50 min
Influenza A virus [36] = assay: Antiviral activity against Influenza A virus H1N1 (A/Puerto Rico/8/34) infected in MDCK cells assessed as reduction in NP protein level at 1 uM in presence of 125 uM rNTP by Western blot analysis; type: functional, organism-based
[37] = Metabolic stability in dog liver microsomes assessed as half life preincubated for 5 mins followed by NADPH addition and measured upto 45 mins by LC-MS analysis; type: ADME, Canis lupus familiaris, Microsome; settings: time < 50 min
[38] = Toxicity in BALB/c mouse assessed as lethargy at 1 g/kg, IG administered 3 times per day and measured for 14 days; settings: in vivo, po, 1000 mg/kg, 336 h, time 14 day
Influenza B virus [39] = assay: Antiviral activity against influenza B virus Victoria/2/87 infected in MDCK cells; type: functional, organism-based; settings: Victoria/2/87, MDCK
[40] = Toxicity in BALB/c mouse assessed as body weight loss at 1 g/kg, IG administered 3 times per day; settings: in vivo, po, 1000 mg/kg
[41] = Clearance in Sprague-Dawley rat at 3 mg/kg, iv measured up to 24 hrs by LC-MS analysis; type: ADME, organism-based; settings: in vivo
[42] = Half life in Sprague-Dawley rat at 10 mg/kg, po measured up to 24 hrs by LC-MS analysis; type: ADME, organism-based; settings: in vivo
[43] = AUC(0 to infinity) in Sprague-Dawley rat at 10 mg/kg, po measured up to 24 hrs by LC-MS analysis; type: ADME, organism-based; settings: in vivo
[44] = Metabolic stability in human liver microsomes assessed as hepatic clearance preincubated for 5 mins followed by NADPH addition and measured upto 45 mins by LC-MS analysis; type: ADME, Microsome; settings: time < 50 min
Influenza A virus [45] = assay: Antiviral activity against Influenza A virus H1N1 (A/Puerto Rico/8/34) infected in MDCK cells assessed as reduction in viral proliferation at 20 nM pre-infected with virus for 1 hr followed by compound addition and measured after 48 hrs by crystal violet staining based plaque formation assay; type: functional, organism-based
[46] = AUC(0 to t) in Sprague-Dawley rat at 3 mg/kg, iv measured up to 24 hrs by LC-MS analysis; type: ADME, organism-based; settings: in vivo
[47] = Toxicity in BALB/c mouse assessed as animal death at 1 g/kg, IG administered 3 times per day and measured for 14 days; settings: in vivo, po, 1000 mg/kg, 336 h, time 14 day
[48] = Toxicity in BALB/c mouse assessed as anorexia at 1 g/kg, IG administered 3 times per day and measured for 14 days; settings: in vivo, po, 1000 mg/kg, 336 h, time 14 day
[49] = Metabolic stability in human plasma assessed as remaining compound measured upto 120 mins by LC-MS/MS analysis; type: ADME, cell-free; settings: read-out: Stability

For `CC(C)(C)c1ccc(C(=O)NC(=S)Nc2ccc(NC(=O)c3ccc(C(C)(C)C)cc3)cc2)cc1`, the hepatic extraction ratio at 0.75 h [1] was 52.3%, the Activity (Influenza A virus [2]) was “Dose-Dependent Effect” and the Activity [3] was “Non-Toxic”. The hepatic extraction ratio at 0.75 h [4] was 53.1%, the half-life [5] was 76.7 min and the hepatic extraction ratio at 0.75 h [6] was 64.1%. For the same compound, the Activity (Influenza A virus [7]) was “inactive”, the Activity (Influenza A virus [8]) was “Active” and the Activity (Influenza A virus [9]) was 50%. It also gave an AUC(0-inf) [10] of 21900 ng·h/mL, a CLint scaled [11] of 102 mL/min/kg and a bioavailability [12] of 7.38%. The EC50 (Influenza B virus [13]) was 50 nM, the CC50 [14] was greater than 100 µM and the Activity (Influenza A virus [15]) was “inactive”. For the same compound, the Cmax [16] was 41900 ng/mL, the inhibition (Influenza A virus [17]) was “Dose-Dependent Effect” and the half-life [18] was 221 min. The selectivity ratio [19] was greater than 120000, the Cmax [20] was 1180 ng/mL and the Tmax [21] was 4 h. The CLhep predicted [22] was 47.8 mL/min/kg, the Tmax [23] was 4.8 min and the Activity [24] was “Non-Toxic”. For the same compound, the Activity (Influenza A virus [25]) was “Dose-Dependent Effect”, the AUC(0-t) at 24 h [26] was 5420 ng·h/mL and the half-life [27] was 192 min. The Activity (Influenza A virus [28]) was “Active”, the Activity [29] was “Non-Toxic” and the CLint scaled [30] was 22.7 mL/min/kg. The CLhep predicted [31] was 19.8 mL/min/kg, the CLint scaled [32] was 55.1 mL/min/kg and the EC50 (Influenza A virus [33]) was 1 nM. For the same compound, the Activity (Influenza A virus [34]) was “inactive”, the half-life [35] was 53.5 min and the Activity (Influenza A virus [36]) was “inactive”. The half-life [37] was 62.7 min, the Activity [38] was “Non-Toxic” and the EC50 (Influenza B virus [39]) was 40 nM. For the same compound, the Activity [40] was “Toxic”, the clearance [41] was 2.29 mL/min/kg and the half-life [42] was 196 min. For the same compound, the AUC(0-inf) [43] was 5400 ng·h/mL, the CLhep predicted [44] was 10.8 mL/min/kg and the Activity (Influenza A virus [45]) was “Active”. For the same compound, the AUC(0-t) at 24 h [46] was 21900 ng·h/mL, the Activity [47] was “Non-Toxic” and the Activity [48] was “Non-Toxic”. The remaining at 2 h [49] was 64%.
